Test results as given in patent US11304970B2, “EGFR gene expression-suppressing siRNA, precursor of same, and applications thereof” (JIANGSU MICROMEDMARK BIOTECH CO., LTD., priority 2016, dated 2022).

Tested on: mouse Lewis lung cancer
Experiment: Survival (Kaplan-Meier) and micro-CT tumour examination in Lewis lung cancer mice (Example 3)
Settings: 5 mg/kg, once every 3 days, 7 times, plasmid intravenous, Gefitinib oral
Experimental: To further study the therapeutic effect of the EGFR siRNA plasmid on mouse Lewis lung cancer, after successful model construction of Lewis lung cancer mice, we performed treatment in the following three groups: the EGFR-si plasmid group, Gefitinib group and control plasmid group, respectively. […] The EGFR-si plasmid and control plasmid were administered by intravenous injection, and Gefitinib was administered orally. The dosage in each treatment group was 5 mg/kg, and the administration interval was once every 3 days, for a total of 7 times. After the treatment, we recorded the survival situation of the mice and plotted the Kaplan-Meier survival curve using the Graphpad Prism statistical software.

Structure (SMILES): COc1cc2ncnc(Nc3ccc(F)c(Cl)c3)c2cc1OCCCN1CCOCC1 [Gefitinib]
- change of lung tumours after the treatment (micro-CT): the tumours generally grew
